Laboratory results reported in patent publication US10858316B2, “Small molecule inhibitors of the MCL-1 oncoprotein and uses thereof” (University of Maryland, Baltimore, priority 2015, dated 2020).
Where two headings read alike, the source gives them in different places.

Tests used:
Mcl-1 [1] = molecular target: T1, Mcl-1 (Homo sapiens (Human), UniProt Q07820); experiment: 2D 1H-15N HSQC NMR with 15N-labeled Mcl-1; assay type: binding; details: 131 μM 15N-Mcl-1, 182 μM compound
Experimental: NMR spectra was collected at 25° C. with a Bruker AVANCE 800 NMR spectrometer (800.27 MHz for protons) equipped with pulsed-field gradients, four frequency channels, and triple resonance, z-axis gradient cryogenic probes. A one-second relaxation delay was used, and quadrature detection in the indirect dimensions was obtained with states-TPPI phase cycling; initial delays in the indirect dimensions were set to give zero- and first-order phase corrections of 90° and −180°, respectively. Data were processed using the processing program nmrPipe on Linux workstations. All proton chemical shifts are reported with respect to the H2O or HDO signal, taken to be 4.658 ppm relative to external TSP (0.0 ppm) at 37° C. The ^15N chemical shifts were indirectly referenced using the zero-point frequency at 37° C. of 0.10132905 for ^15N—^1H, as previously described.
All compounds used for NMR were initially suspended in 100% d6-DMSO. The NMR samples contained 131 μM ^15N-labeled Mcl-1, 182 μM compound, 20 mM HEPES, pH 6.8, 50 mM NaCl, 3 mM DTT, 20% D2O, and 5% D6-DMSO.

A375 melanoma cells = experiment: Cell proliferation / viability, CellTiter-Blue assay, A375; assay type: cell-based, human; details: for IC50: cell titer blue assay, read-out: IC50 inhibition of cell proliferation, A375
Experimental: (§1) Without being limited to any one theory, the poor efficacy in cells may be attributed to the charged carboxylic acid of 3bl.
The moderate cellular activity of ±-2 may, for instance, be due to limited cell penetration owing to the charged carboxylic acid. Thus, the acetoxymethyl ester ±-12 (R1=CH2OCOCH3) was prepared as a neutral prodrug of ±-2.

Mcl-1 [2] = molecular target: T1, Mcl-1; experiment: Fluorescence polarization competition assay (FPCA), Mcl-1 / FITC-Bak BH3 peptide; assay type: binding; details: for Ki: read-out: Mcl-1 Ki
Procedure, shortened: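 Purified Mcl-1 (affinity tag cleaved, size-exclusion polished) competed against FITC-labeled Bak-BH3 peptide, read by fluorescence polarization. IC50 from Hill-equation fit; Ki derived from IC50 by the Nikolovska-Coleska equation.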

Bcl-xL = Bcl-xL (Homo sapiens (Human), UniProt Q07817); experiment: Fluorescence polarization competition assay, Bcl-xL; assay type: binding; details: Ki from IC50 by Nikolovska-Coleska equation; NA = no activity; read-out: Bcl-xL Ki
Bcl-xL, sequence (Q07817 whole entry): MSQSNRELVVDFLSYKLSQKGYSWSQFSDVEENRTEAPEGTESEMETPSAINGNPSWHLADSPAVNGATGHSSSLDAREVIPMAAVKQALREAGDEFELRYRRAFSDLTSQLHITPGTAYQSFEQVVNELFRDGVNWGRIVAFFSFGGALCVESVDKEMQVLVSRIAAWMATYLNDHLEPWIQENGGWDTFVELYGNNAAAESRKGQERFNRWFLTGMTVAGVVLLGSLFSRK

SK-MEL-5 melanoma cells = experiment: Cell proliferation, cell titer blue assay, SK-MEL-5; assay type: cell-based
From the text: as §1

[3] = FPCA with FITC-Bak, Ki from IC50 by Nikolovska-Coleska equation
[4] = read-out: IC50 inhibition of cell proliferation, SK-MEL-5

T1 sequence (Q07820 172-327): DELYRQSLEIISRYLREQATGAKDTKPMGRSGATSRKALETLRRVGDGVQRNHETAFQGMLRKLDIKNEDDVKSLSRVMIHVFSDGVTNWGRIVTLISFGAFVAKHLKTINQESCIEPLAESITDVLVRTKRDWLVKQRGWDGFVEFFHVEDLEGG

IC50 (A375 melanoma cells; Homo sapiens, A-375) [µM]	Ki (Bcl-xL) [µM]	Compound	Mcl-1 backbone 1H-15N chemical shift perturbation on compound binding (Mcl-1 [1])	Ki (Mcl-1 [2]; [3]) [µM]	Ki (Mcl-1 [2]; FPCA) [µM]	IC50 (A375 melanoma cells) [µM]	Binding affinity to Mcl-1 in vitro (Mcl-1 [2]; FPCA)	IC50 (SK-MEL-5 melanoma cells; [4]) [µM]	further results
150	6.08 ± 0.81	CC(C)CN(c1ccc(OC(C)C)cc1)S(=O)(=O)c1cc(C(=O)O)c(O)c2ccccc12 [Compound 3ba, 1-Hydroxy-4-(N-isobutyl-N-(4-isopropoxyphenyl)sulfamoyl)-2-naphthoic Acid]	perturbation of the chemical shifts	0.487					
50	0.34 ± 0.13	Cc1cc(Oc2ccc(N(Cc3ccccc3)S(=O)(=O)c3cc(C(=O)O)c(O)c4ccccc34)cc2)cc(C)c1Cl [Compound 3bl, 4-(N-Benzyl-N-(4-(4-chloro-3,5-dimethylphenoxy)phenyl)sulfamoyl)-1-hydroxy-2-naphthoic Acid]			0.031				IC50 (SK-MEL-5 melanoma cells; Homo sapiens, SK-MEL-5, read-out: IC50 inhibition of cell proliferation, SK-MEL-5): 90 µM
		COC(=O)c1cc(S(=O)(=O)N(CC(C)C)c2ccc(OC(C)C)cc2)c2ccccc2c1O [Compound 13]				~300	no binding affinity	~300	
		CC(=O)OCOC(=O)c1cc(S(=O)(=O)N(CC(C)C)c2ccc(OC(C)C)cc2)c2ccccc2c1O [Compound 14]				15	no binding affinity	15	
		Cc1cc(Oc2ccc(S(=O)(=O)N3CC(C(=O)O)Cc4ccccc43)cc2)cc(C)c1Cl (racemic) [±-2]	significant chemical shift changes	0.12 ± 0.053	0.12				GI50 (A375 melanoma cells; CellTiter-Blue assay, read-out: GI50, viability of A375 cells): 50 µM; GI50 (A375 melanoma cells; read-out: GI50, viability of A375 melanoma cells): 50 µM

Compound	IC50 (A375 melanoma cells; Homo sapiens, A-375) [µM]	Ki (Bcl-xL) [µM]	Mcl-1 backbone 1H-15N chemical shift perturbation on compound binding (Mcl-1 [1])	Ki (Mcl-1 [2]; [3]) [µM]	Ki (Mcl-1 [2]; FPCA) [µM]	IC50 (A375 melanoma cells) [µM]	Binding affinity to Mcl-1 in vitro (Mcl-1 [2]; FPCA)	IC50 (SK-MEL-5 melanoma cells; [4]) [µM]	further results
Cc1cc(Oc2ccc(S(=O)(=O)N(CC(C)C)c3ccc(C(=O)O)c(O)c3)cc2)cc(C)c1Cl [4jc117-5 13ak]		1.63 ± 0.177	R263 and T266 were both perturbed	0.778 ± 0.05	0.778				
